From patent US8314112B2 (Novartis AG, priority 2008, dated 2012) come the findings set out here.

SMILES strings stand for the structures.

The target of this assay is T1, human ALK5 (kinase domain, ALK5 T204D) (Homo sapiens, UniProt P36897, T204D).
T1 construct: The kinase domain of human ALK5 (amino acids 200-503); made in house; host or cells: insect cells (baculovirus)
T1 sequence (P36897 200-503 T204D): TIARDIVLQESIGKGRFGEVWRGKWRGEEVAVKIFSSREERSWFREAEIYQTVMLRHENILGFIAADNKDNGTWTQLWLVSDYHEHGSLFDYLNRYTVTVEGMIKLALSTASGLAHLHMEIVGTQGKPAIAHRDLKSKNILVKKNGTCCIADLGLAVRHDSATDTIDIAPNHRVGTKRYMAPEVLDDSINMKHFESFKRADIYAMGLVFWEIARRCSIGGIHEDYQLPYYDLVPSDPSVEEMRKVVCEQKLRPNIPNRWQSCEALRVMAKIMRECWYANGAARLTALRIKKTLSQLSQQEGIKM
Description: ALK5 kinase assay ([33P] phosphate incorporation into casein). In kind it is biochemical. The settings on record: casein substrate, 1 μM unlabelled ATP. Put shortly:
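His-tagged human ALK5 T204D kinase domain (aa 200-503, constitutively active, baculovirus/insect-cell expressed), 50 ng/well, preincubated 10 min with compound and dephosphorylated casein (200 μg/well) in Tris pH 7.4/MgCl2/MnCl2. Reaction started with 1 μM ATP plus [33P]ATP, 50 min at room temperature, EDTA-stopped; casein-bound 33P counted by scintillation after filter capture.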
As for `Cc1cccc(-c2nc(-c3cncc(-c4cccc(C(C)(C)N)c4)c3)c3cc[nH]c3n2)n1` [Example 85, 1-Methyl-1-(3-{5-[2-(6-methyl-pyridin-2-yl)-7H-pyrrolo[2,3-d]pyrimidin-4-yl]-pyridin-3-yl}-phenyl)-ethylamine], the IC50 was 99 nM.

Turning to `Cc1cccc(-c2cc(-c3cncc(-c4cccc(CN)c4)c3)c3cc[nH]c3n2)n1` [Example 86, 3-{5-[6-(6-Methyl-pyridin-2-yl)-1H-pyrrolo[2,3-b]pyridin-4-yl]-pyridin-3-yl}-benzylamine], the midpoint of inhibition, the IC50, lay at 8 nM.

`Cc1cccc(-c2nc(-c3cncc(-c4ccc(C5CNCCN5)cc4)c3)c3cc[nH]c3n2)n1` (stereo not shown) [Example 87, 2-(6-Methyl-pyridin-2-yl)-4-[5-(4-piperazin-2-yl-phenyl)-pyridin-3-yl]-7H-pyrrolo[2,3-d]pyrimidine] returned an IC50 of 10 nM.

`Cc1cccc(-c2cc(-c3cncc(-c4ccc(CN5CCOCC5)cc4)c3)c3cc[nH]c3n2)n1` [Example 88, 6-(6-Methyl-pyridin-2-yl)-4-[5-(4-morpholin-4-ylmethyl-phenyl)-pyridin-3-yl]-1H-pyrrolo[2,3-b]pyridine]: the midpoint of inhibition, the IC50, lay at 20 nM.

`Cc1cccc(-c2cc(-c3cncc(C4=CCCC4)c3)c3cc[nH]c3n2)n1` [Example 89, 4-(5-Cyclopent-1-enyl-pyridin-3-yl)-6-(6-methyl-pyridin-2-yl)-1H-pyrrolo[2,3-b]pyridine] had an IC50 of 79 nM.

Turning to `Cc1cccc(-c2cc(-c3cncc(-c4cccc(CN5CCOCC5)c4)c3)c3cc[nH]c3n2)n1` [Example 90, 6-(6-Methyl-pyridin-2-yl)-4-[5-(3-morpholin-4-ylmethyl-phenyl)-pyridin-3-yl]-1H-pyrrolo[2,3-b]pyridine], the IC50 came to 66 nM.

`Cc1cccc(-c2cc(-c3cncc(-c4cncc(CN(C)C)c4)c3)c3cc[nH]c3n2)n1` [Example 91, Dimethyl-{5′-[6-(6-methyl-pyridin-2-yl)-1H-pyrrolo[2,3-b]pyridin-4-yl]-[3,3′]bipyridinyl-5-ylmethyl}-amine]: 109 nM corresponded to half-maximal inhibition (IC50).

For the molecule `CNCc1cncc(-c2cncc(-c3cc(-c4cccc(C)n4)nc4[nH]ccc34)c2)c1` [Example 92, Methyl-{5′-[6-(6-methyl-pyridin-2-yl)-1H-pyrrolo[2,3-b]pyridin-4-yl]-[3,3′]bipyridinyl-5-ylmethyl}-amine], the IC50 was 103 nM.

Take `Cc1cccc(-c2cc(-c3cncc(-c4cccc(CO)c4)c3)c3cc[nH]c3n2)n1` [Example 93, (3-{5-[6-(6-Methyl-pyridin-2-yl)-1H-pyrrolo[2,3-b]pyridin-4-yl]-pyridin-3-yl}-phenyl)-methanol]: the IC50 amounted to 24 nM.

The molecule `CSc1cncc(-c2nc(-c3cccc(C)n3)nc3[nH]ccc23)c1` [Example 94, 2-(6-Methyl-pyridin-2-yl)-4-(5-methylsulfanyl-pyridin-3-yl)-7H-pyrrolo[2,3-d]pyrimidine] displayed an IC50 of 191 nM.

`Cc1cccc(-c2nc(-c3cncc(N)c3)c3cc[nH]c3n2)n1` [Example 95, 5-[2-(6-Methyl-pyridin-2-yl)-7H-pyrrolo[2,3-d]pyrimidin-4-yl]-pyridin-3-ylamine] showed an IC50 of 259 nM.

In turn, `Cc1cncc(-c2nc(-c3cccc(C)n3)nc3[nH]ccc23)c1` [Example 96, 4-(5-Methyl-pyridin-3-yl)-2-(6-methyl-pyridin-2-yl)-7H-pyrrolo[2,3-d]pyrimidine] registered an IC50 of 751 nM.

On to `Cc1cccc(-c2nc(-c3cncc(-c4ccc(CN5CC[C@@H](N(C)C)C5)cc4)c3)c3cc[nH]c3n2)n1` [Example 97, Dimethyl-[(R)-1-(4-{5-[2-(6-methyl-pyridin-2-yl)-7H-pyrrolo[2,3-d]pyrimidin-4-yl]-pyridin-3-yl}-benzyl)-pyrrolidin-3-yl]-amine], for which the IC50 came out at 8 nM.

For the molecule `Cc1cccc(-c2nc(-c3cncc(C#N)c3)c3cc[nH]c3n2)n1` [Example 98, 5-[2-(6-Methyl-pyridin-2-yl)-7H-pyrrolo[2,3-d]pyrimidin-4-yl]-nicotinonitrile], the IC50 worked out at 799 nM.

For `Cc1cccc(-c2nc(-c3cncc(-c4cccc(C5CNCCN5)c4)c3)c3cc[nH]c3n2)n1` (stereo not shown) [Example 99, 2-(6-Methyl-pyridin-2-yl)-4-[5-(3-piperazin-2-yl-phenyl)-pyridin-3-yl]-7H-pyrrolo[2,3-d]pyrimidine], the IC50 was determined as 14 nM.

In turn, `Cc1cccc(-c2nc(-c3cncc(-c4ccc(CN5CC[C@H](N(C)C)C5)cc4)c3)c3cc[nH]c3n2)n1` [Example 100, Dimethyl-[(S)-1-(4-{5-[2-(6-methyl-pyridin-2-yl)-7H-pyrrolo[2,3-d]pyrimidin-4-yl]-pyridin-3-yl}-benzyl)-pyrrolidin-3-yl]-amine] came in with an IC50 of 8 nM.

In turn, `Cc1cccc(-c2nc(-c3cncc(C4=CCNCC4)c3)c3cc[nH]c3n2)n1` [Example 101, 5-[2-(6-Methyl-pyridin-2-yl)-7H-pyrrolo[2,3-d]pyrimidin-4-yl]-1′,2′,3′,6′-tetrahydro-[3,4′]bipyridinyl] returned an IC50 of 437 nM.

`Cc1cccc(-c2nc(-c3cncc(-c4cccc(C5CCCN5)c4)c3)c3cc[nH]c3n2)n1` (stereo not shown) [Example 102, 2-(6-Methyl-pyridin-2-yl)-4-[5-(3-pyrrolidin-2-yl-phenyl)-pyridin-3-yl]-7H-pyrrolo[2,3-d]pyrimidine] registered an IC50 of 31 nM.

As to `CC(=O)N1CC=C(c2cncc(-c3nc(-c4cccc(C)n4)nc4[nH]ccc34)c2)CC1` [Example 103, 1-{5-[2-(6-Methyl-pyridin-2-yl)-7H-pyrrolo[2,3-d]pyrimidin-4-yl]-3′,6′-dihydro-2′H-[3,4′]bipyridinyl-1′-yl}-ethanone], it took 133 nM to reach half-maximal inhibition (IC50).

As to `Cc1cccc(-c2nc(-c3cncc(-c4nnn[nH]4)c3)c3cc[nH]c3n2)n1` [Example 104, 2-(6-Methyl-pyridin-2-yl)-4-[5-(1H-tetrazol-5-yl)-pyridin-3-yl]-7H-pyrrolo[2,3-d]pyrimidine], the midpoint of inhibition, the IC50, lay at 1030 nM.

Take `CSc1cncc(-c2cc(-c3cccc(C)n3)nc3[nH]ccc23)c1` [Example 105, 6-(6-Methyl-pyridin-2-yl)-4-(5-methylsulfanyl-pyridin-3-yl)-1H-pyrrolo[2,3-b]pyridine]: the IC50 amounted to 115 nM.

`Cc1cccc(-c2cc(-c3cncc(N)c3)c3cc[nH]c3n2)n1` [Example 106, 5-[6-(6-Methyl-pyridin-2-yl)-1H-pyrrolo[2,3-b]pyridin-4-yl]-pyridin-3-ylamine] showed an IC50 of 66 nM.

Take `Cc1cccc(-c2cc(-c3cncc(O)c3)c3cc[nH]c3n2)n1` [Example 107, 5-[6-(6-Methyl-pyridin-2-yl)-1H-pyrrolo[2,3-b]pyridin-4-yl]-pyridin-3-ol]: the IC50 is 43 nM.

In turn, `Cc1cccc(-c2cc(-c3cncc(-c4ccc(CN5CC[C@@H](N(C)C)C5)cc4)c3)c3cc[nH]c3n2)n1` [Example 108, Dimethyl-[(R)-1-(4-{5-[6-(6-methyl-pyridin-2-yl)-1H-pyrrolo[2,3-b]pyridin-4-yl]-pyridin-3-yl}-benzyl)-pyrrolidin-3-yl]-amine] came in with an IC50 of 4.6 nM.

For the molecule `Cc1cccc(-c2cc(-c3cncc(CO)c3)c3cc[nH]c3n2)n1` [Example 109, {5-[6-(6-Methyl-pyridin-2-yl)-1H-pyrrolo[2,3-b]pyridin-4-yl]-pyridin-3-yl}-methanol], it took 812 nM to reach half-maximal inhibition (IC50).
